From US20240197823A1, “CATIONIC ANTIMICROBIAL PEPTIDES AND USES THEREOF” (priority 2021, published 2024)
No end group written: not given here.

Key:
[1] = system: E. coli; test: microbe, parasite or virus in culture
Experimental: (§1) Bacteria. Bacterial clinical isolates, used for initial screening and in previous studies [Greber K E et al., 2017], were anonymously provided by the clinical microbiology laboratory of the University of Pittsburgh medical Center. The panel used for secondary screening was from CDC (Table 4), with resistance profiles data. Bacteria are stored in lock-secured −80° C. freezer and typically retrieved by obtaining single colonies on agar plates prior for subsequent liquid broth cultures. Suspensions of test bacteria were prepared from log phase of growth by diluting overnight cultures at 1:100 with fresh cation-adjusted MHB (MHB2, Millipore Sigma, USA) and incubating for additional 3-4 hours. Bacteria were spun at 3000×g for 10 minutes and the pellet resuspended in test condition media (Millipore Sigma, USA) to determine bacterial turbidity using a Den-1B densitometer (Grant Instruments, USA) at 0.5 McFarland (unit of bacterial density) corresponding to […].
(§2) Antibacterial assays. To examine antibacterial activity, this study used minor modifications of a standard growth inhibition assay endorsed by the Clinical and Laboratory Standards Institute (CLSI), as previously described [Greber K E et al., 2017]. Bacteria were incubated with each of the indicated peptides in MHB2. The bacterial cells were kept in an incubator for 18 hours at 37° C., which is linked to a robotic system that feeds a plate reader every hour with one of 8×96-well plates. This set-up allows the collection of growth kinetic data at A 570 (absorbance at 570 nm) to examine growth inhibition in real time (BioTek Instruments, USA). […] To assess bactericidal properties of the peptide, the assay was modified by using 15% fetal bovine serum (FBS, for a more physiologically relevant test condition) mixed with 25% MHB2 and 60% PBS. Bacterial cells (colony forming unit/mL or CFU/mL) were enumerated after incubating treated bacteria for 3 hours and plating serially diluted samples on broth agar medium at 37° C. overnight. […] For killing kinetics, we slightly modified the bactericidal assay to examine bacterial killing at the MBC (or 2×MBC) as a function of time for up to 3 hours. Data were analyzed using GraphPad Prism software.

[2] = system: MDR clinical strains of ESKAPE pathogens and E. coli provided by the CDC (AR isolates panel); test: Advanced testing, MIC against CDC AR isolates panel; format: cell-based; settings: colistin-resistant strains
Experimental: as §1, §2

[3] = system: P. aeruginosa; test: microbe, parasite or virus in culture
Experimental: as §1, §2

[4] = Mouse toxicity, maximum tolerated dose; format: in vivo, CD-1 mice
Experimental: Mouse toxicity. For all animal experiments, the protocol #18071776 approved by the Institutional Animal Care and Use Committee (IACUC) of the University of Pittsburgh was used, which is consistent with the NIH guide for the care and use of laboratory animals. In a preliminary (pilot) experiment, female CD-1 mice (3 per group) weighing about 20 g were injected different doses of peptides up to 45 mpk via a lateral tail vein (IV) to determine an MTD (dose that results in no apparent morbidity or mortality). To confirm the MTD determined in the pilot study, CD-1 mice (7 per group) were randomized to receive a dose based on the preliminary MTD (IV) or PBS (100 μL). The animals were monitored for up to 7 days for morbidity and survival.

Sequence: RRVWRRVRRVWRRVRRVVRRVW [E71]
- MIC [1]: 1 µM
- cross-resistance with colistin [2]: no cross-resistance at all

Sequence: RRVWRRVRRVWRRVRRVWRRVV [E75]
- MIC [3]: 13 µM

Sequence: RRVWRWVRRVWRWVRR [E35]
- morbidity and mortality ([4]; 7 mice, systemically at 30 mpk): no apparent morbidity and mortality
- maximum tolerated dose, MTD ([4]; CD-1 mice, tail vein (IV)): 30 mpk

Sequence: RRWVRRVRRVWRRVRRVVRRWV [E4]
- cross-resistance with colistin [2]: no cross-resistance at all

Sequence: RRWVRWVRRWVRWVRR [E80]
- MIC [3]: 2 µM

Sequence: RVWRRVRRVWRRVRRVWRRV [E69]
- MIC [3]: 2 µM

Sequence: RWVRRVRRWVRRVRRVVRRW [E70]
- cross-resistance with colistin [2]: no cross-resistance at all

Sequence: RWVRRVRRWVRRVRRWVRRV [E68]
- cross-resistance with colistin [2]: no cross-resistance at all
